For one series, the system named is HIV-1 pNL4-3. The experiment in a line: Acute HIV-1 infection, HeLa-CD4-LTR-LacZ reporter CPRG assay. The format is cell-based. The method, then: Forty-eight hours post infection a quantitative chlorophenol red-β-D-galactopyranoside (CPRG) assay was performed.
Twenty-four hours later HIV-1 pNL4-3 was added to the cells of both experiment sets (MOI>>10) in the presence of testing compound or DMSO control. CPRG assay performed 48 h later.
HeLa-CD4 cells were infected with HIV-1 pNL4-3 in the presence of the indicated compounds or DMSO. Forty hours post infection a CPRG assay was performed. […] Error bars represent standard deviation.
P42 cells were plated at 1×10^4 cells per well of 96 well. Twenty-four hours later HIV-1 pNL4-3 was added to the wells in the presence of testing compound or DMSO control in a total volume of […] Forty hours post infection cells were disrupted in lysis buffer (60 mM Na2HPO4, 40 mM NaH2PO4, 10 mM KCl, 10 mM MgSO4, 2.5 mM EDTA, 50 mM β-mercaptoethanol, 0.125% Nonidet P-40) and a quantitative chlorophenol red-β-D-galactopyranoside (CPRG)-based (Boehringer Mannheim) assay was performed. The cell extracts were incubated in a reaction buffer (0.9 M phosphate buffer [pH 7.4], 9 mM MgCl2, 11 mM β-mercaptoethanol, 7 mM CPRG) until a red color developed (from approximately 10 min to 4 h) and measured with an LP400 (Becton Dickinson) plate reader at 572 nm. Experiments were performed in triplicate.
Transcription of the HIV-1 provirus is regulated by both viral and cellular transcription factors. Before Tat is produced, low-level basal transcription from the viral promoter is initiated by cellular factors, such as the nuclear factor-kappa B (NF-kB), Sp1, TATA-binding protein and RNAPII. A desirable Tat inhibitor should block Tat-mediated activation of the viral promoter without affecting its basal transcription, which would result in cellular toxicity, given the shared transcription factors of the HIV promoter and cellular genes.

Series [1] concerns Tat transactivation of the HIV-1 LTR. As to the kind of experiment: Tat transactivation assay, HeLa-CD4-LTR-Luc cells. Format: cell-based. The method, then: Chloroquine 100 μM was added to increase Tat uptake was added to all points except untreated wells. Luciferase activity was measured 24 h later using the Luciferase Assay System (Promega). Luciferase activity per protein concentration of each sample is shown as relative light units (RLU). HI: Heat Inactivated.
FIG. 2B: HeLa-LTR-Luc cells were transfected with 2 μg of a construct expressing Tat-flag driven by the thymidine kinase (TK) promoter. […] Forty hours later RLU determined as in FIG. 2A.
Luciferase activity measured and results adjusted per protein concentration of each sample, relative light units (RLU).
PL11 cells were plated at 1×10^5 cells per well in a 6 well plate. The following day recombinant Tat protein (AIDS Research and Reference Reagent Program, Cat No. 11882) at 5 μg/ml and/or Cortistatin A at increasing concentrations were added to the cells, in culture media without serum and in the presence of 100 μM of chloroquine (increases Tat uptake). Five hours later, serum was added at 5% to the culture media. Forty hours later cells were lysed with 1× Lysis Buffer and luciferase activity was measured as before. Protein concentration was determined by Bradford assay. Results corresponding to the adjustment of the luciferase activity per protein concentration of each sample are shown as RLU. […]

A further series has as its system PBMCs. As to the kind of experiment: Viability of uninfected PBMCs (MTT, ViViD/Annexin V). Format: cell-based, human. The protocol:
FIG. 13A: Mitochondrial metabolic activity.
Viability was measured after 24 h and 72 h of culture. PBMCs were stained with FITC-labeled antibody to CD3 (555339), Alexa 700-labeled antibody to CD4 (557922), PerCP-Cy5.5-labeled antibody to CD8 (341051), V450-labeled antibody to CD14 (560349), V450-labeled antibody to CD19 (560353), APC-labeled antibody to AnnexinV (550474) and Live/Dead Aqua blue (L34957). All antibodies were purchased from BD Biosciences except for Live/Dead Aqua blue (Invitrogen). Analyses were performed on a LSRII (BD Bioscience) flow cytometer.

The nature of series [2]: Aqueous solubility / formulation in water. Format: physicochemical. The following applies: formulated 1 mg/mL in water.

The results in this text go back to US9682994B2, “Inhibitors of retroviral replication” (The Scripps Research Institute, priority 2011, dated 2017).

For orientation: EC50 means the concentration giving half of the maximal effect. As a reminder, the CC50 is the concentration at which the toxic effect on the cells reaches its halfway point. High values mean better tolerance by the cells, low ones harm at low concentration.

Entries after “also recorded” stand apart in the source; their conditions may differ.

With `CN(C)[C@H]1C[C@@]23CC[C@@]4(O2)C(=CC[C@]2(C)C(c5ccc6ccncc6c5)=CC[C@H]24)C=C3[C@@H](O)[C@@H]1O` [dCA, didehydro-Cortistatin A], in the series with HIV-1 pNL4-3 (acute infection), the “maximal inhibition following acute infection” value is listed as 75-85%. Besides, in the series on HIV-1 pNL4-3 (highest MOI, 48 h post infection, read-out: EC50, inhibition of transcription (β-gal activity)), the EC50 came to 0.0026 µM. Besides, the “reduction in the EC50 by pre-treatment of cells” value in the series with HIV-1 pNL4-3 (pre-treatment for 24 h prior to infection) was found to be 7 fold. The reduction of infectivity in the series with HIV-1 pNL4-3 (two-day acute infection assay) was 75-80%. Moreover, in series [1] (absence of Tat, or PMA activation), the “basal transcription from the LTR promoter” value was “did not alter basal transcription”. In addition, the “Tat-mediated transcriptional activation of LTR-Luc” value in series [1] (recombinant Tat protein added) was “Transcriptional repression”. In addition, the half-maximal cytotoxic concentration (CC50) in the series with PBMCs came to 100 µM. Moreover, the aqueous solubility result in series [2] is “high aqueous solubility; also recorded: highly soluble in water”.
